Experimental data reported in patent EP0197829A1, “5H-pyrido[3',4':4,5]pyrrolo[3,2-c]pyridine derivatives, process for their preparation and their antitunour activity” (SANOFI, priority 1985, dated 1986).
Like-named read-outs stand apart in the source and are kept apart here.

Key:
leucémie P 388 = assay type: in vivo, souris hybrides CDF1
Description: (§1) L'activité antitumorale a été testée in vivo sur différentes tumeurs selon le protocole général suivant : Toutes les souris mâles ou femelles sont inoculées par voie intrapéritonéale au jour Jo avec une quantité déterminée de cellules tumorales viables, variable selon la tumeur.
(§2) Elles sont ensuite réparties en différents lots. Chaque lot correspondant aux animaux traités par le produit à tester à une dose déterminée est composé de lO souris. Dans ce cas, le produit à tester est dissous dans l'eau distillée et il est administré, pendant n jours (J1-Jn) variables selon le protocole choisi, par voie intrapéritonéale à raison de 0,1 ml par lO g de poids des souris traitées, les doses du produit administré étant précisées dans les tableaux ci-dessous.
(§3) Le lot "Contrôle négatif", correspondant aux animaux qui ne sont pas traités par un produit, comprend 2 √N animaux, N étant égal au nombre total de souris traitées par un produit.
(§4) Enfin, tous lés essais sont conduits parallèlement à l'étude d'un lot appelé "Contrôle positif" de 10 animaux qui est traité par une molécule active, variable selon le protocole choisi, dans les mêmes conditions que les lots traités par le produit à tester, afin de valider l'essai.
(§5) L'activité antitumorale est évaluée en considérant l'augmentation du temps de survie des animaux traités par rapport à celui des animaux du lot "Contrôle négatif" selon la formule : • Jour médian de survie des animaux traités à une T/C = dose donnée de produit x 100 • Jour médian de survie des animaux "Contrôle négatif"
(§6) Un composé est considéré comme étant actif lorsque la valeur du rapport T/C est égale ou supérieure à 125 % selon le protocole retenu. Il est toxique lorsque cette valeur est égale ou inférieure à 85 %. Le produit est également considéré comme toxique lorsque la variation pondérale, exprimée en grammes et calculée par la formule : Poids moyen du lot mesuré au jour 5 - poids moyen du même lot au jour 1, est égale ou inférieure à -4g . a) Test de la leucémie P 388 (GERAN et al., Cancer Chemother, 1972, 2, 07-57).
Les essais sont effectués avec des souris hybrides CDF1 inoculées par voie intrapéritonéale avec […] leucémiques de la lignée P 388. Le composé à tester est administré pendant 5 jours (Jl-J5). Le contrôle positif du test est le 5-fluorouracile qui est administré dans les mêmes conditions.
[…] Un composé est considéré comme étant actif lorsque le rapport T/C est supérieur à 127 %.

réticulosarcome M5-M5076 = test: M5-M5076 reticulosarcoma test in vivo; parameters: species or system souris hybrides BDF1; settings: for Survivants: at day J 75
Description: as §1, §2, §3, §4, §5, §6
d) Test du réticulosarcome M5-M5076.
Les essais sont effectués avec des souris hybrides BDF1 inoculées avec 10^6 cellules de la lignée M5-M5076. Le composé à tester est administré 5 fois successivement de façon séquentielle (Jl, 5, 9, 13, 17). Le contrôle positif du test est le cyclophosphamide administré dans les mêmes conditions. Le nombre d'animaux survivants est évalué au jour J 75. Un composé est considéré comme actif lorsque le rapport T/C est supérieur ou égal à 125 %.

leucémie L 1210 = test: L 1210 leukemia test in vivo; parameters: species or system souris hybrides CDF1; settings: for Survivants: at day J 60
Description: as §1, §2, §3, §4, §5, §6
b) Test de la leucémie L 1210 (GERAN et al., Cancer Chemother, 1972, 2, 07-57).
Les essais sont effectués avec des souris hybrides CDF1 inoculées avec 10^5 cellules leucémiques de la lignée L 1210. Le composé à tester est administré pendant 5 jours (J1-J5). Le contrôle positif du test est le 5-fluorouracile administré dans les mêmes conditions. Le nombre d'animaux survivants est évalué au jour J 60. Un composé est considéré comme étant actif lorsque le rapport T/C est supérieur ou égal à 125 %.

[1] = 100 mg/kg i.p. J1, 5, 9, 13, 17
[2] = 150 mg/kg i.p. J1, 5, 9, 13, 17

Q: For `CCN(CC)CCCNc1ncc(C)c2c1c1cnccc1n2C` [Dérivé N° 4, [(diéthylamino-3 propyl-1)amino]-1 diméthyl-4,5 5-H pyrido[3',4':4,5]pyrrolo[3,2-c]pyridine], which “Jour médian de survie” value (leucémie P 388; 5 mg/kg i.p. J1-J5) is on record?
A: 14,25

Q: And the T/C % (leucémie P 388; 5 mg/kg i.p. J1-J5)?
A: 130%

Q: And the Survivants (leucémie P 388; 5 mg/kg i.p. J1-J5, at day J 40)?
A: 0/10

Q: And the “Jour médian de survie” value (leucémie P 388; 10 mg/kg i.p. J1-J5)?
A: 16,13

Q: And the T/C % (leucémie P 388; 10 mg/kg i.p. J1-J5)?
A: 147%

Q: What about the Survivants (leucémie P 388; 10 mg/kg i.p. J1-J5, at day J 40) of the same compound?
A: 0/10

Q: What about the “Jour médian de survie” value (leucémie P 388; 20 mg/kg i.p. J1-J5) of the same compound?
A: 18,0

Q: What about the T/C % (leucémie P 388; 20 mg/kg i.p. J1-J5) of the same compound?
A: 164%

Q: What about the Survivants (leucémie P 388; 20 mg/kg i.p. J1-J5, at day J 40) of the same compound?
A: 0/10

Q: And the “Jour médian de survie” value (leucémie P 388; 40 mg/kg i.p. J1-J5)?
A: 18,75

Q: What about the T/C % (leucémie P 388; 40 mg/kg i.p. J1-J5) of the same compound?
A: 172%

Q: What about the Survivants (leucémie P 388; 40 mg/kg i.p. J1-J5, at day J 40) of the same compound?
A: 0/10

Q: And the “Jour médian de survie” value (leucémie P 388; 50 mg/kg i.p. J1-J5)?
A: 25

Q: What about the T/C % (leucémie P 388; 50 mg/kg i.p. J1-J5) of the same compound?
A: 207%

Q: And the Survivants (leucémie P 388; 50 mg/kg i.p. J1-J5, à J 42)?
A: 3/10 à J 42

Q: What about the “Jour médian de survie” value (leucémie P 388; 80 mg/kg i.p. J1-J5) of the same compound?
A: 8,9

Q: And the T/C % (leucémie P 388; 80 mg/kg i.p. J1-J5)?
A: 81%

Q: And the Survivants (leucémie P 388; 80 mg/kg i.p. J1-J5, at day J 40)?
A: 0/10

Q: And the “Jour médian de survie” value (leucémie P 388; 1,25 mg/kg i.p. J1-J5)?
A: 12,6

Q: And the T/C % (leucémie P 388; 1,25 mg/kg i.p. J1-J5)?
A: 115%

Q: What about the Survivants (leucémie P 388; 1,25 mg/kg i.p. J1-J5, at day J 40) of the same compound?
A: 0/10

Q: And the “Jour médian de survie” value (leucémie P 388; 2,5 mg/kg i.p. J1-J5)?
A: 14,25

Q: And the T/C % (leucémie P 388; 2,5 mg/kg i.p. J1-J5)?
A: 130%

Q: And the Survivants (leucémie P 388; 2,5 mg/kg i.p. J1-J5, at day J 40)?
A: 0/10

Q: And the “Jour médian de survie” value (réticulosarcome M5-M5076; 10 mg/kg i.p. J1, 5, 9, 13, 17)?
A: 28,3

Q: What about the T/C % (réticulosarcome M5-M5076; 10 mg/kg i.p. J1, 5, 9, 13, 17) of the same compound?
A: 108%

Q: What about the Survivants (réticulosarcome M5-M5076; 10 mg/kg i.p. J1, 5, 9, 13, 17) of the same compound?
A: 0

Q: What about the “Jour médian de survie” value (réticulosarcome M5-M5076; 25 mg/kg i.p. J1, 5, 9, 13, 17) of the same compound?
A: 41,75

Q: And the T/C % (réticulosarcome M5-M5076; 25 mg/kg i.p. J1, 5, 9, 13, 17)?
A: 159%

Q: What about the Survivants (réticulosarcome M5-M5076; 25 mg/kg i.p. J1, 5, 9, 13, 17) of the same compound?
A: 1

Q: What about the “Jour médian de survie” value (réticulosarcome M5-M5076; 50 mg/kg i.p. J1, 5, 9, 13, 17) of the same compound?
A: 53,0

Q: And the T/C % (réticulosarcome M5-M5076; 50 mg/kg i.p. J1, 5, 9, 13, 17)?
A: 202%

Q: And the Survivants (réticulosarcome M5-M5076; 50 mg/kg i.p. J1, 5, 9, 13, 17)?
A: 4

Q: What about the “Jour médian de survie” value (réticulosarcome M5-M5076; [1]) of the same compound?
A: 48,0

Q: And the T/C % (réticulosarcome M5-M5076; [1])?
A: 182%

Q: And the Survivants (réticulosarcome M5-M5076; [1])?
A: 2

Q: What about the “Jour médian de survie” value (réticulosarcome M5-M5076; [2]) of the same compound?
A: 14,0

Q: What about the T/C % (réticulosarcome M5-M5076; [2]) of the same compound?
A: 53%

Q: And the Survivants (réticulosarcome M5-M5076; [2])?
A: 0

Q: What about the “Jour médian de survie” value (leucémie L 1210; 5 mg/kg i.p. J1-J5) of the same compound?
A: 12,75

Q: What about the T/C % (leucémie L 1210; 5 mg/kg i.p. J1-J5) of the same compound?
A: 138%

Q: And the Survivants (leucémie L 1210; 5 mg/kg i.p. J1-J5)?
A: 0

Q: What about the “Jour médian de survie” value (leucémie L 1210; 15 mg/kg i.p. J1-J5) of the same compound?
A: 13,75

Q: What about the T/C % (leucémie L 1210; 15 mg/kg i.p. J1-J5) of the same compound?
A: 149%

Q: And the Survivants (leucémie L 1210; 15 mg/kg i.p. J1-J5)?
A: 0

Q: And the “Jour médian de survie” value (leucémie L 1210; 30 mg/kg i.p. J1-J5)?
A: 17,25

Q: And the T/C % (leucémie L 1210; 30 mg/kg i.p. J1-J5)?
A: 188%

Q: And the Survivants (leucémie L 1210; 30 mg/kg i.p. J1-J5)?
A: 0

Q: What about the “Jour médian de survie” value (leucémie L 1210; 60 mg/kg i.p. J1-J5) of the same compound?
A: 18,0

Q: And the T/C % (leucémie L 1210; 60 mg/kg i.p. J1-J5)?
A: 196%

Q: What about the Survivants (leucémie L 1210; 60 mg/kg i.p. J1-J5) of the same compound?
A: 1

Q: And the “Jour médian de survie” value (leucémie L 1210; 80 mg/kg i.p. J1-J5)?
A: 9,1

Q: And the T/C % (leucémie L 1210; 80 mg/kg i.p. J1-J5)?
A: 99%

Q: And the Survivants (leucémie L 1210; 80 mg/kg i.p. J1-J5)?
A: 0

Q: What about the “Jour médian de survie” value (leucémie L 1210; 2,5 mg/kg i.p. J1-J5) of the same compound?
A: 10,9

Q: What about the T/C % (leucémie L 1210; 2,5 mg/kg i.p. J1-J5) of the same compound?
A: 118%

Q: And the Survivants (leucémie L 1210; 2,5 mg/kg i.p. J1-J5)?
A: 0
